Test results published in patent publication US20190083498A1, “THERAPIES FOR HEMATOLOGIC MALIGNANCIES” (GILEAD CALISTOGA LLC, priority 2008, published 2019).

Assays:
Phospho-Akt = Phospho-Akt production in patient AML cells; assay type: cell-based, human; conditions: 0.1, 1.0, 10 μM
Excerpt: PI3Kδ is implicated in signaling in AML patient cells.

INA-6 cells [1] = assay: Cleavage of caspases and PARP, western blot; assay type: cell-based, human; conditions: 0-5 μM, 120 h
Excerpt: (§1) Whole-cell lysates were subjected to sodium dodecyl sulfate-polyacrylamide gel electrophoresis (SDS-PAGE) separation, transferred to Pure Nitrocellulose membranes (Bio-Rad Laboratories, Hercules, Calif.), and immunoblotted with anti-AKT, phospho(p)-AKT (Ser473, Thr 308), ERK1/2 , P-ERK1/2, P-PDK1, STAT, P-STAT, P-FKRHL, P-70S6K, LC3, and PI3K/p110 α Abs (Cell Signaling Danvers, Mass.); anti-p110β, PI3K/p110δ, Glyceraldehyde 3-phosphate dehydrogenase (GAPDH), α-tubulin, and actin Abs (Santa Cruz Biotechnology, Calif.); and anti-p110 γ Ab (Alexis, San Diego, Calif.): and anti-LC3 Ab (Abgent, San Diego, Calif.).
Total cell lysates were subjected to immunoblotting using anti-caspase-3, -8, -9, PARP, and α-tubulin Abs. FL indicates full-length protein, and CL indicates cleaved protein.

HuVECs = assay: In vitro angiogenesis assay, endothelial cell tube formation; assay type: cell-based, human; conditions: 0, 1.0, or 10 μM; 8 h
Protocol: HUVEC and endothelial growth media were obtained from Lonza (Walkersville, Md., USA). […] After 8 h, tube formation was evaluated using Leika DM IL microscopy (Leica Microsystems, Wetzlar, Germany) and analyzed with IM50 software (Leica Microsystems Imaging Solutions, Cambridge, UK). HUVEC cell migration and rearrangement was visualized, and the number of branching points counted.
The effect of P110 δ inhibition on angiogenesis was investigated.

[2] = system: T-ALL and B-ALL leukemic cell lines; assay: Viability of ALL cell lines, AlamarBlue; assay type: cell-based; conditions: 48 hours
Protocol: Viability assays of cell lines were performed using the AlamarBlue assay (Invitrogen). Cells (1×10^6 per well) in a volume of 100 μL were placed in a 96-well flat-bottom plate and the compound of formula I (100 μL per well at 2× final concentration) or medium alone was added to the plates. All were performed in quadruplicate. Cells were incubated for fixed times (48 hours). After the incubation, 10 μL AlamarBlue® was added to each well. Cells were incubated for 4 hours and the optical density at 530-560 nm was obtained using a SpectraMax® M5 plate reader 2001. Cell viability was expressed as a percentage of absorption between treated cells/control sample.

[3] = system: cleavage of caspase 3 and PARP; assay: Caspase 3 and PARP cleavage, MSD multi-spot plates; assay type: cell-based; conditions: 5 or 10 μM; 24 hrs
Protocol: Thereafter, cells were lysed and sized-fractionated and immunoblotted with antibody directed against FLIP, FIG. 29. Additionally, whole cell lysates were added to MDS (Meso Scale Diagnostics) multi-spot 96-well 4 spot plates coated with Total caspase-3, cleaved caspase-3, cleaved PARP, and BSA. Proteins were detected with antibodies labeled with SULFO-TAG reagent and quantified.

[4] = Blood glucose and insulin levels of a subject; assay type: in vivo, human
[5] = system: CLL cells with or without StromaNKTert; assay: CLL cell viability/apoptosis in stromal co-culture, Annexin V/PI FACS; assay type: cell-based, human; conditions: 24 hours
Protocol: CLL cell and stromal cell co-cultures: CLL cells were cultured under standardized conditions on stromal cell lines or primary NLC. Briefly, stromal cells were seeded one day prior to each experiment onto 24-well plates (Corning Life Sciences) at a concentration of 3×10^5 cells/mL/well and incubated at 37° C. in 5% CO2. Stromal cell confluence was confirmed by phase contrast microscopy, and CLL cells were then added onto the stromal cell layer at a concentration of 3×10^6 cells/mL. Cultures were then treated with compounds for the specified time periods. CLL cells were removed for analysis by gentle pipetting with media, and were then washed in PBS prior to analysis. A 24-hour co-culture time point was used unless otherwise indicated.
Cell viability testing and reagents: CLL cell viability was determined by analysis of Annexin V-FITC (BD Biosciences, San Diego, Calif.) and Propidium Iodine (PI) (Sigma) by FACS.
To determine whether PI3K inhibition increased the sensitivity of stroma-exposed CLL cells by increasing priming, PB-derived CLL cells cultured with or without StromaNKTert cells for 24 hours and were examined using Annexin-PI and BH3 profiling. […] Stromal co-culture of four CLL patient samples led to protection from apoptosis in untreated cells.

BMSCs = assay: BMSC viability, MTT; assay type: cell-based, human; conditions: 0-20 μM, 48 h
Protocol: Cell viability was assessed by MTT assay, FIG. 34G. Values represent mean ±SD of triplicate cultures.

primary MCL cells = assay: Constitutive PI3K signaling in primary MCL cells; assay type: cell-based, human; conditions: two patients; dose dependent; 0.1 μM or 1 μM
[6] = system: p110δ-negative cell lines; assay: Growth inhibition of p110δ-negative MM cell lines, MTT; assay type: cell-based, human; conditions: 48 h
MM.1S cells = assay: AKT and ERK phosphorylation, immunoblotting; assay type: cell-based, human; conditions: MM.1S cells with low expression of P110δ; 6 hours
Excerpt: as §1
(§2) Actin Ab was used as a loading control. […] Whole cell lysates were subjected to immunoblotting using AKT, P-AKT (Ser473 and Thr308), ERK1/2, P-ERK1/2, P-PDK1, and P-FKRHL antibodies. α-tubulin is used as a loading control.

[7] = system: T47D and HS-578T cell lines; assay: Proliferation of breast cancer cell lines, AlamarBlue; assay type: cell-based; conditions: with serum
Protocol: T47D and HS-578T cell lines were grown in the presence of serum plus the indicated concentrations of the compound of formula I. Proliferation was measured in triplicate wells by AlamarBlue® assay (Invitrogen) 96-well plates.

pAKT = pAKT in DLBCL cell lines; assay type: cell-based
LB and INA-6 cells = assay: MM cell DNA synthesis with IL-6 or IGF-1, [3H]-thymidine incorporation; assay type: cell-based, human; conditions: 5.0 or 10 μM; IL-6 1 and 10 ng/ml, IGF-1 10 and 100 ng/mL
Protocol: DNA synthesis was determined by measuring [3H]-thymidine incorporation during the last 8 h of 72 h cultures. Data represent means (±SD) of triplicate cultures.

[8] = system: Akt (Ser473) phosphorylation; assay: Akt phosphorylation in ALL cell lines; assay type: cell-based
INA-6 cells [9] = assay: AKT and ERK pathway phosphorylation, immunoblotting; assay type: cell-based, human
Excerpt: as §1, §2

In the case of `CC[C@H](Nc1ncnc2[nH]cnc12)c1nc2cccc(F)c2c(=O)n1-c1ccccc1` [Compound I, 5-fluoro-3-phenyl-2-[1-(9H-purin-6-ylamino)-propyl]-3H-quinazolin-4-one], the “phospho-Akt production in patient AML cells” value (Phospho-Akt) is reported as “reduces phopsho-Akt production”, the “cleavage of caspase-8, caspase-9, caspase-3, and PARP” value (INA-6 cells [1]) is reported as “Significantly increased cleavage” and the capillary-like tube formation (HuVECs) is reported as “inhibited capillary-like tube formation in a dose-dependent fashion”. The “cellular viability of ALL cell lines” value [2] was “significant reduction in cell viability”, the “cellular viability of ALL cell lines” value ([2]; listed as compound I) was “substantial reduction in cellular viability” and the “cleavage of caspase 3 and PARP” value [3] was “dose dependent response”. The insulin levels ([4]; after 7 days of treatment) was “remained within the normal range”, the blood glucose concentration ([4]; after 10 days, highest dosage (50-200 mg BID)) was “remained steady” and the “CLL cell viability in stromal co-culture, single agent” value ([5]; 10 μM alone, two patients) was “profound stroma-mediated resistance”. The “apoptosis versus control in the absence of stroma” value ([5]; four CLL patient samples) was “induce more apoptosis than the control”, the “apoptosis versus control in the presence of stroma” value ([5]; four CLL patient samples) was “induce significantly more apoptosis than the control” and the “growth inhibition in BMSCs” value (BMSCs) was “no significant growth inhibition”. The “constitutive PI3K signaling in primary MCL cells” value (primary MCL cells) was “block constitutive PI3K signaling”, the “cytotoxicity in p110δ-negative cell lines” value [6] was “minimal cytotoxicity” and the “phosphorylation of AKT or ERK” value (MM.1S cells) was “did not affect”. The “proliferation of breast cancer cell lines” value [7] was “inhibits proliferation”, the “pAKT levels in DLBCL cell lines” value (pAKT) was “reduces pAKT levels” and the “growth inhibition in the presence of IL-6 or IGF-1” value (LB and INA-6 cells) was “Neither IL-6 nor IGF-1 protected”. The “Akt phosphorylation in ALL cell lines” value [8] was “reduction in Akt phosphorylation”, the “phosphorylation of upstream PDK-1 and downstream FKHRL” value (INA-6 cells [9]; INA-6 and LB MM cells, 0-6 hours) was “significantly inhibited” and the “phosphorylation of AKT and ERK1/2” value (INA-6 cells [9]; p110δ positive INA-6 cells) was “significantly blocked”.
